What was measured:
Type in all cases: cell-based
[1] = test system: MDA-MB-231 cells; assay: FAK silencing combined with Eribulin, Annexin V apoptosis by flow cytometry; settings: MDA-MB-231 cells transfected with FAK siRNA 50 nM for 24 hours, then 0.15 µM Eribulin 48 hours; FAK silencing group compared with control group
Method: (§1) • 1. FAK silencing combined with Eribulin promotes apoptosis of breast cancer cells MDA-MB-231 The siRNA technology was used in the in vitro assays to reduce the expression level of FAK, and combined with Eribulin for 48 hours; flow cytometry was used to detect apoptosis in control and FAK silenced cells. • 2. FAK silencing combined with Eribulin can effectively promote the production of ICD in breast cancer cells MDA-MB-231 The siRNA technology was used in the in vitro assay to reduce the expression level of FAK, and combined with Eribulin for 48 hours. Flow cytometry was used to detect the expression of Calreticulin, the main target of ICD.
(§2) Recombinant Alexa Fluor® 647 fluorescent Anti-Calreticulin antibody (Abcam, ab196159), Annexin V apoptosis detection kit (Invitrogen, A35110).
(§3) FAK siRNA was provided by Gene Pharma, and the sequence is shown in the following table: • F: […]; • R: […] • Assay instruments: Fluorescence microscope (Olympus U-HGLGPS). Chemiluminescence imager (BIORAD chemidoc touch).
(§4) • 1. […] The cells were stained using Annexin V kit and detected by flow cytometry. The early and late apoptosis values were counted, compared with those of the DMSO control group, and plotted using Graphpad 8.0. […] The cells were fluorescent stained with Calreticulin antibody, and the staining results were analyzed by flow cytometry.

[2] = test system: MDA-MB-231 cells; assay: FAK silencing combined with Eribulin, Calreticulin (ICD target) by flow cytometry; settings: MDA-MB-231 cells transfected with FAK siRNA 50 nM for 24 hours, then 0.15 µM Eribulin 48 hours; vs control siRNA
Method: as §1, §2, §3, §4

[3] = test system: mouse breast cancer 4T1 cells; assay: Eribulin and IN10018: microscopy and CRT/Annexin-V/PI and GRP94 flow cytometry; settings: 48 hours, IN10018 5 µM, Eribulin 0.15 µM or 0.45 µM, alone or combined
Method: (§5) 4T1 cells were cultured in monolayer in vitro under the following conditions: RPMI-1640 medium with 10% fetal bovine serum, 37 °C, 5% CO2. Trypsin was used for routine digestion and passage treatment two to three times a week. When the cells were in the exponential growth phase and the adherent confluence reached 80%-90%, the cells were harvested and plated.
4T1 cells were digested with trypsin and then collected and counted. Based on the counting results, the cells were diluted with RPMI-1640+10% FBS to a concentration of 50,000 cells per milliliter. Then the cells were plated in 12-well cell culture plates, with 2 ml of cell suspension per well, i.e., 100,000 cells. After plating, the cells were cultured in a 37°C and 5% CO2 incubator.
(§6) After 24 hours of plating, test compounds IN10018 and Eribulin were added to different wells, respectively.
(§7) After 48 hours of drug action, the cells were photographed using a microscope, and then trypsinized and collected for flow cytometry staining.
The cells were washed twice with flow buffer (DPBS + 2% FBS), and each group of cells was divided into two equal parts. In one part, 0.5 µL of AF647 Anti-Calreticulin Antibody was added to each well, and mixed. The cells were incubated at 4°C in the dark for 20 min. […]
(§8) After the assay, the cell positive rate was analyzed by Flowjo (V10) software.

[4] = test system: human ovarian epithelial carcinoma TOV-21G cells; assay: Eribulin and IN10018: microscopy and CRT/Annexin-V/PI flow cytometry; settings: 48 hours, IN10018 10 µM, Eribulin 0.045 µM, alone or combined
Method: as §5, with “ID8 cells and TOV-21G” for “4T1”, “vitro. ID8 cells were cultured in DMEM medium with 10% fetal bovine serum. TOV-21G cells were cultured in” for “vitro under the following conditions:”, “serum. Both were cultured in a” for “serum,”, “CO2 incubator.” for “CO2.”
(§9) ID8 cells and TOV-21G cells were digested with trypsin and then collected and counted. Based on the counting results, the cells were diluted with the corresponding complete culture medium to a concentration of 50,000 cells per milliliter. Then the cells were plated in 12-well cell culture plates, with 2 ml of cell suspension per well, i.e., 100,000 cells.
(§10) After plating, the cells were cultured in a 37°C and 5% CO2 incubator.
as §6, §7
(§11) The cells were washed twice with flow buffer (DPBS + 2% FBS). 0.5 µL of AF647 Anti-Calreticulin Antibody was added to each well, and mixed. The cells were incubated at 4°C in the dark for 20 min. After washing once with flow buffer, 195 µL of Annexin-V-FITC binding solution was added, and the cells were gently mixed well. 5 µL of Annexin-V-FITC antibody was added. After further mixing, 10 µL of PI dye was added and mixed well. The cells were incubated at room temperature in the dark for 15 min. The cells were then subjected to flow cytometry.
as §8

[5] = test system: mouse ovarian epithelial carcinoma ID8 cells; assay: as above; settings: 48 hours, IN10018 10 µM, Eribulin 0.045 µM, alone or combined
Method: as §5, with “ID8 cells and TOV-21G” for “4T1”, “vitro. ID8 cells were cultured in DMEM medium with 10% fetal bovine serum. TOV-21G cells were cultured in” for “vitro under the following conditions:”, “serum. Both were cultured in a” for “serum,”, “CO2 incubator.” for “CO2.”
as §9, §10, §6, §7, §11, §8

[6] = test system: mouse colon cancer CT26 cells; assay: Docetaxel/Eribulin/Paclitaxel and Defactinib: microscopy and CRT/Annexin-V/PI flow cytometry; settings: 48 hours, Defactinib 5 µM, Docetaxel 0.3 µM, Eribulin 0.3 µM, Paclitaxel 6 µM, alone or combined with Defactinib
Method: as §5, with “CT26” for “4T1”, “37°C,” for “37 °C,”
as §9, with “CT26” for “ID8 cells and TOV-21G”, “trypsin,” for “trypsin”, “then the cells were” for “then”
as §10
After 24 hours of plating, the test compounds Docetaxel, Eribulin, Paclitaxel and Defactinib were added to different wells, respectively.
as §7
as §11, with “mixed well.” for “mixed.”
as §8

[7] = test system: mouse breast cancer 4T1 cells; assay: Docetaxel/Eribulin and Defactinib: microscopy and CRT/Annexin-V/PI flow cytometry; settings: 48 hours, Defactinib 5 µM, Docetaxel 0.3 µM, Eribulin 0.1 µM, alone or combined with Defactinib
Method: 4T1 cells were cultured in a monolayer in vitro in RPMI-1640 medium with 10% fetal bovine serum in a 37 °C, 5% CO2 incubator. Trypsin was used for routine digestion and passage treatment two to three times a week. When the cells were in the exponential growth phase and the adherent confluence reached 80%-90%, the cells were harvested and plated.
as §9, with “4T1” for “ID8 cells and TOV-21G”, “trypsin,” for “trypsin”, “then the cells were” for “then”
as §10
After 24 hours of plating, the test compounds Defactinib, Docetaxel and Eribulin were added to different wells, respectively.
as §7
The cells were washed twice with flow buffer (DPBS + 2% FBS). 0.5 µL of AF647 Anti-Calreticulin Antibody was added to each well, and mixed well. The cells were incubated at 4°C in the dark for 20 min. […]
as §8

## C=C1C[C@@H]2CC[C@@]34C[C@H]5O[C@H]6[C@@H](O3)[C@H]3O[C@H](CC[C@@H]3O[C@H]6[C@H]5O4)CC(=O)C[C@@H]3[C@@H](OC)[C@@H](C[C@H](O)CN)O[C@H]3C[C@H]3O[C@@H](CC[C@@H]1O2)C[C@@H](C)C3=C [Eribulin]
[1]
  early and late apoptosis (Annexin V kit): significantly enhanced
[2]
  release and exposure of Calreticulin: significantly enhanced
[3]
  cell status (cell death / cell viability) under a microscope: obvious
[4]
  cell status (cell death / cell viability) under a microscope: obvious
[5]
  cell status (cell death / cell viability) under a microscope: obvious
[6]
  cell status (cell death) under a microscope: obvious
[7]
  cell status (cell death) under a microscope: obvious

From EP4578449A1, “PHARMACEUTICAL COMBINATION OF FAK INHIBITOR AND MICROTUBULE INHIBITOR AND USE THEREOF” (Inxmed (Nanjing) Co., Ltd., priority 2022, dated 2024)
